The record followed here is ChEMBL document CHEMBL1132934, “Multivariate data analysis using D-optimal designs, partial least squares, and response surface modeling: A directional approach for the analysis of farnesyltransferase inhibitors” (J Med Chem, 2000).

One may read the IC50 as the concentration that inhibits the measured activity by half. The term Ki denotes a dissociation constant, usually derived from enzyme kinetics or from competition with a known ligand. A higher Ki goes with a looser hold on the target.

In experiment [1] the target is T1, Protein farnesyltransferase (Homo sapiens, UniProt P49354+P49356). As to the kind of experiment: Inhibition of Farnesyltransferase. It is filed as protein-complex assay.
Experiment [2] concerns HCT-116. As to the kind of experiment: (§1) […] inhibition of cellular activity in HCT116 colony formation assay. It is filed as functional. The following applies: Homo sapiens.
Experiment [3] deals with HCT-116. The experiment is described as §1. It is filed as functional, Homo sapiens.
Experiment [4] concerns the target T1, Protein farnesyltransferase. As to the kind of experiment: Inhibition of farnesyltransferase by Ras/SPA assay. It is filed as protein-complex assay.
For experiment [5], the system named is HCT-116. The experiment can be described thus: […] inhibition of cellular activity in HCT116 colony formation assay; AI means almost inactive. It is filed as functional. The following applies: Homo sapiens.
Experiment [6] is described as follows: Binding affinity against Ras SPA enzyme.
For experiment [7], the system named is HCT-116. The experiment can be described thus: […] inhibition of cellular activity in HCT116 colony formation assay; CA means cytostatic activity. It counts as functional. The conditions noted are these: Homo sapiens.
A short description of experiment [8]: Binding affinity against Ras protein.

Structures are written as SMILES. Activity calls are given as the source filed them. No cut-off for these calls is given here. A value given as a limit tells only on which side of the number the result lay.

For the molecule `COc1ccccc1CC(=O)N1C[C@H]2[C@@]3(c4ccccc4)CC[C@H](c4ccccc43)[C@@]2(C(=O)O)C1` (racemic), the IC50 is 200 nM in experiment [1] and over 10000 nM in experiment [2]. In the case of `C=C(C(=O)N1C[C@H]2[C@@]3(c4ccc(Br)cc4)CC[C@H](c4ccccc43)[C@@]2(C(=O)O)C1)c1ccccc1OC`, in experiment [3], the IC50 was 59 nM. Take `C=C(C(=O)N1C[C@H]2[C@@]3(c4ccccc4)CC[C@H](c4ccccc43)[C@@]2(C(=O)O)C1)c1ccccc1OC` (racemic): in experiment [4], affinity was put at a Ki of 25 nM. The molecule further yielded an IC50 in experiment [2] of 720 nM. Moreover, in experiment [5], the AI entry was “inactive”. `CONC(=O)[C@]12CN(C(=O)Cc3ccccc3OC)C[C@H]1[C@@]1(c3ccccc3)CC[C@@H]2c2ccccc21` came in with an inhibitory constant (Ki) in experiment [4] of 420 nM. In experiment [6], `COc1ccccc1CC(=O)N1C[C@H]2[C@@]3(c4ccccc4)CC[C@H](c4ccccc43)[C@@]2(NC(=O)OCc2ccccc2)C1` had a Ki of 100000 nM. As for `C=C(C(=O)N1C[C@H]2[C@@]3(c4ccc5c(c4)CCO5)CC[C@H](c4ccccc43)[C@@]2(C(=O)O)C1)c1ccccc1OC`, in experiment [4], the Ki is 420 nM. In other words, the sub-micromolar range. Still for that read-out and setting: then `COc1ccccc1CC(=O)N1C[C@H]2[C@@]3(c4ccccc4)CC[C@H](c4ccccc43)[C@@]2(C(=O)O)C1`, with 140 nM; and `COc1ccccc1CC(=O)N1C[C@H]2[C@@]3(c4ccccc4)CC[C@](O)(c4ccccc43)[C@@]2(C(=O)O)C1`, with 250 nM.

`COCCCC(=O)N1C[C@H]2[C@@]3(c4ccccc4)CC[C@H](c4ccccc43)[C@@]2(C(=O)O)C1` returned a Ki in experiment [6] of 100000 nM. Turning to `C=C(C(=O)N1C[C@H]2[C@@]3(c4ccc(OCC(=O)O)cc4)CC[C@H](c4ccccc43)[C@@]2(C(=O)O)C1)c1ccccc1OC`, in experiment [4], the Ki stood at 25500 nM.

The molecule `COc1ccccc1CC(=O)N1C[C@H]2[C@@]3(c4ccccc4)CC[C@H](c4ccccc43)[C@@]2(C(=O)N[C@H](C)c2ccccc2)C1` yielded a Ki in experiment [6] of 2080 nM. In turn, `COc1ccccc1CC(=O)N1C[C@H]2[C@@]3(c4ccccc4)CC[C@H](c4ccccc43)[C@@]2(C(=O)NCC(=O)O)C1` came in with a Ki in experiment [4] of 738 nM.

Take `COc1ccccc1CC(=O)N1C[C@H]2[C@@]3(c4ccccc4)CC[C@H](c4c(O)cccc43)[C@@]2(C(=O)O)C1`: the affinity in experiment [4], expressed as Ki, was 50000 nM. This Ki lies about 68-fold higher than the previous one. The molecule `COc1ccccc1CC(=O)N1C[C@H]2[C@@]3(c4ccccc4)CC[C@H](c4ccccc43)[C@@]2(C(=O)NN)C1` registered a Ki in experiment [6] of 2450 nM. In the case of `C=C(C(=O)N1C[C@H]2[C@@]3(c4ccc(C)cc4)CC[C@H](c4ccccc43)[C@@]2(C(=O)O)C1)c1ccccc1OC` (racemic), the IC50 is 8 nM in experiment [1] and 45 nM in experiment [2]. For the same molecule, the CA result in experiment [7] is listed as “cytostatic activity”. For the molecule `COc1ccccc1CC(=O)N1C[C@@H]2[C@@H]3CC[C@@](c4ccccc4)(c4ccccc43)[C@@H]2C1`, in experiment [4], the inhibitory constant (Ki) came out at 40000 nM. Take `O=C(Cc1ccccc1OCc1ccccc1)N1C[C@H]2[C@@]3(c4ccccc4)CC[C@H](c4ccccc43)[C@@]2(C(=O)O)C1`: the inhibition constant Ki in experiment [4] and in experiment [8] was 32000 nM each time.
